Laboratory results from patent US20230356105A1, “TETRAAZADODECANE BASED CHELATING AGENTS FOR SEPARATION OF RARE EARTH ELEMENTS AND METHOD THEREFOR” (Ustav Organicke Chemie a Biochemie AV CR V.V.I., priority 2020, published 2023).

Assay: Use of additives to improve separation of Nd/Dy mixture by precipitation with L5 (Example 18)
Assay type: physicochemical
Settings: 11 mM L5
Protocol: Stock solutions were pipetted into plastic 1×1 cm cuvettes to prepare reaction mixtures with concentrations as follows: • 1. […] 5 mM NdCl3 • 3. 5 mM DyCl3 • 4. 500 mM MOPS pH=7 • 5. the additive of interest, in a variable concentration; if possible, stock solutions were prepared from Na^+ salt forms of the compound; if not, the stock solutions were titrated by NaOH/HCl to pH=7 prior to addition (see Table 12 for additives and concentrations)
These aqueous reaction mixtures, each prepared to a total volume of 2.0 mL with the addition of water as necessary, were mixed by the use of a PTFE-coated stir bar on a magnetic stirrer. The cuvettes were sealed with transparent tape to prevent evaporation overnight. The reaction mixtures were stirred for 18 hours, at which point 500 μL aliquots of each reaction mixture were transferred into plastic 2 mL Eppendorf tubes and centrifuged. The supernatants were carefully pipetted out and transferred to a new set of tubes. The precipitate was dissolved by addition of 500 μL 1M HCl. The absolute concentration of Nd and Dy in each supernatant and precipitate was determined by ICP-OES.

SMILES	Precipitate concentration [mM] Dy (additive 20 mM) [mM]	Precipitate concentration [mM] Nd (additive 20 mM) [mM]	Supernatant concentration [mM] Dy (additive 20 mM) [mM]	Supernatant concentration [mM] Nd (additive 20 mM) [mM]	Precipitate concentration [mM] Dy (additive 100 mM) [mM]	Precipitate concentration [mM] Nd (additive 100 mM) [mM]	Supernatant concentration [mM] Dy (additive 100 mM) [mM]	Supernatant concentration [mM] Nd (additive 100 mM) [mM]	Precipitate concentration [mM] Dy (additive 200 mM) [mM]	Precipitate concentration [mM] Nd (additive 200 mM) [mM]	Supernatant concentration [mM] Dy (additive 200 mM) [mM]	Supernatant concentration [mM] Nd (additive 200 mM) [mM]	Precipitate concentration [mM] Dy (additive 500 mM) [mM]	Precipitate concentration [mM] Nd (additive 500 mM) [mM]	Supernatant concentration [mM] Dy (additive 500 mM) [mM]	Supernatant concentration [mM] Nd (additive 500 mM) [mM]	other results
O=C(O)c1cccc(C(=O)O)n1 [dipicolinic acid]	0.36	2.66	4.29	2.21													
Cl [chloride]					4.58	4.62	0.29	0.24	4.48	4.57	0.22	0.12	4.29	4.39	0.24	0.11	Precipitate concentration [mM] Dy (additive 1000 mM): 4.88 mM; Precipitate concentration [mM] Nd (additive 1000 mM): 4.97 mM; Supernatant concentration [mM] Dy (additive 1000 mM): 0.24 mM; Supernatant concentration [mM] Nd (additive 1000 mM): 0.11 mM
NCC(=O)O [glycine]					2.79	4.61	1.99	0.42	1.86	4.69	2.85	0.28					Precipitate concentration [mM] Dy (additive 50 mM): 3.60 mM; Precipitate concentration [mM] Nd (additive 50 mM): 4.90 mM; Supernatant concentration [mM] Dy (additive 50 mM): 1.01 mM; Supernatant concentration [mM] Nd (additive 50 mM): 0.09 mM; Precipitate concentration [mM] Dy (additive 150 mM): 2.44 mM; Precipitate concentration [mM] Nd (additive 150 mM): 4.91 mM; Supernatant concentration [mM] Dy (additive 150 mM): 2.25 mM; Supernatant concentration [mM] Nd (additive 150 mM): 0.11 mM
O=CO [formate]					3.84	4.85	1.09	0.42					2.09	4.93	2.51	0.22	Precipitate concentration [mM] Dy (additive 50 mM): 4.33 mM; Precipitate concentration [mM] Nd (additive 50 mM): 5.17 mM; Supernatant concentration [mM] Dy (additive 50 mM): 0.51 mM; Supernatant concentration [mM] Nd (additive 50 mM): 0.07 mM; Precipitate concentration [mM] Dy (additive 250 mM): 3.33 mM; Precipitate concentration [mM] Nd (additive 250 mM): 5.38 mM; Supernatant concentration [mM] Dy (additive 250 mM): 1.68 mM; Supernatant concentration [mM] Nd (additive 250 mM): 0.11 mM
N#C[S-].[Na+] [thiocyanate]					4.46	4.66	0.31	0.14	4.42	4.60	0.51	0.41	4.16	4.65	0.72	0.36	Precipitate concentration [mM] Dy (additive 1000 mM): 3.26 mM; Precipitate concentration [mM] Nd (additive 1000 mM): 4.63 mM; Supernatant concentration [mM] Dy (additive 1000 mM): 1.70 mM; Supernatant concentration [mM] Nd (additive 1000 mM): 0.41 mM

Now from value to compound, other results behind:

Precipitate concentration [mM] Dy (additive 20 mM) [mM]	Precipitate concentration [mM] Nd (additive 20 mM) [mM]	Supernatant concentration [mM] Dy (additive 20 mM) [mM]	Supernatant concentration [mM] Nd (additive 20 mM) [mM]	SMILES	Precipitate concentration [mM] Dy (additive 100 mM) [mM]	Precipitate concentration [mM] Nd (additive 100 mM) [mM]	Supernatant concentration [mM] Dy (additive 100 mM) [mM]	Supernatant concentration [mM] Nd (additive 100 mM) [mM]	Precipitate concentration [mM] Dy (additive 200 mM) [mM]	Precipitate concentration [mM] Nd (additive 200 mM) [mM]	Supernatant concentration [mM] Dy (additive 200 mM) [mM]	Supernatant concentration [mM] Nd (additive 200 mM) [mM]	Precipitate concentration [mM] Dy (additive 500 mM) [mM]	Precipitate concentration [mM] Nd (additive 500 mM) [mM]	Supernatant concentration [mM] Dy (additive 500 mM) [mM]	Supernatant concentration [mM] Nd (additive 500 mM) [mM]	other results
0.82	4.33	3.82	0.64	O=C(O)CO [glycolate]													Precipitate concentration [mM] Dy (additive 5 mM): 2.61 mM; Precipitate concentration [mM] Nd (additive 5 mM): 4.64 mM; Supernatant concentration [mM] Dy (additive 5 mM): 1.73 mM; Supernatant concentration [mM] Nd (additive 5 mM): 0.09 mM; Precipitate concentration [mM] Dy (additive 10 mM): 1.71 mM; Precipitate concentration [mM] Nd (additive 10 mM): 4.92 mM; Supernatant concentration [mM] Dy (additive 10 mM): 2.93 mM; Supernatant concentration [mM] Nd (additive 10 mM): 0.20 mM; Precipitate concentration [mM] Dy (additive 15 mM): 1.11 mM; Precipitate concentration [mM] Nd (additive 15 mM): 4.54 mM; Supernatant concentration [mM] Dy (additive 15 mM): 3.13 mM; Supernatant concentration [mM] Nd (additive 15 mM): 0.35 mM
1.18	4.33	3.57	0.50	C[C@H](O)C(=O)O [l-lactate]													Precipitate concentration [mM] Dy (additive 5 mM): 3.15 mM; Precipitate concentration [mM] Nd (additive 5 mM): 4.33 mM; Supernatant concentration [mM] Dy (additive 5 mM): 1.59 mM; Supernatant concentration [mM] Nd (additive 5 mM): 0.51 mM; Precipitate concentration [mM] Dy (additive 10 mM): 2.08 mM; Precipitate concentration [mM] Nd (additive 10 mM): 4.49 mM; Supernatant concentration [mM] Dy (additive 10 mM): 2.47 mM; Supernatant concentration [mM] Nd (additive 10 mM): 0.21 mM; Precipitate concentration [mM] Dy (additive 15 mM): 1.60 mM; Precipitate concentration [mM] Nd (additive 15 mM): 4.38 mM; Supernatant concentration [mM] Dy (additive 15 mM): 3.21 mM; Supernatant concentration [mM] Nd (additive 15 mM): 0.49 mM
0	0	5	5	O=C(O)c1ccccn1 [picolinic acid]													
